Data: patent US11046722B2, “Sulphated disaccharides for the treatment of neuropathic pain” (BIOIBERICA, S.A.U., priority 2017, dated 2021)

Tested on: cold allodynia induced in mice by subcutaneous carrageenan injection
Test: Cold allodynia induced by subcutaneous carrageenan injection (acetone test, time spent licking the paw)
Format: in vivo
Conditions: carrageenan 1% 50 μl s.c., 60 mg/Kg orally 3.5 hours after injection, acetone test 45 minutes after treatment
Description: In Example 4 an experimental model is used of cold allodynia induced in mice by subcutaneous carrageenan injection, as described in the article by Choi et al., Behavioral signs of ongoing pain and cold allodynia in a rat model of neuropathic pain, Pain, 1994, 59 (3), 369-376. This trial is based on causing cold allodynia in mice by subcutaneous carrageenan injection in the plantar surface of one of the hind paws of the animals, and subsequently measuring the sensitivity to cold by applying acetone on the plantar surface of both hind paws: the ipsilateral (the same one where the carrageenan was injected) and the contralateral (the unsensitized hind paw). The sensitivity to cold is quantified by measuring the time the animals spent licking the paw for 5 minutes after the application of the acetone. As described in such example, compound Ic is effective in reversing the cold allodynia according to this model (FIG. 6).
In this trial 16 mice were used to which 50 μl of a carrageenan solution at 1% were administered by subcutaneous injection in the plantar surface of one of the hind paws. After 3.5 hours since the injection, 60 mg/Kg of the Ic compound was administered orally to 9 of the animals, while only the vehicle (saline solution) was administered to the remaining 7 (control group). […]

In the case of CO[C@H]1O[C@H](COS(=O)(=O)[O-])[C@@H](OS(=O)(=O)[O-])[C@H](O[C@@H]2O[C@H](C(=O)[O-])[C@@H](O)[C@H](O)[C@H]2O)[C@H]1NC(C)=O.[Na+].[Na+].[Na+] [Compound Ic, methyl 2-acetamido-2-desoxi-3-O-(β-D-glucopyranosyluronic acid)-4,6-di-O-sulfo-α-D-glucopyranoside trisodium salt], the “reversal of cold allodynia (ipsilateral paw)” value is reported as “completely reversed”.
